From patent publication US20230233591A1, “METHOD FOR TREATING […]” (priority 2020, published 2023)
Where a name gives a salt, the structure may show the parent alone.

Assays:
[1] = test system: CPXV; test: microbe, parasite or virus in culture; type: cell-based
[2] = test system: CPXV; test: microbe, parasite or virus in culture; type: cell-based; conditions: Cowpox virus, Vero C1008, 24 h
[3] = test system: VACV; test: microbe, parasite or virus in culture; type: cell-based; conditions: Orthopoxvirus vaccinia, Huh-7, 24 h
[4] = test system: VACV; test: microbe, parasite or virus in culture; type: cell-based; conditions: Orthopoxvirus vaccinia, Vero C1008, 24 h
[5] = in vitro; conditions: human
[6] = in vitro; conditions: African green monkey

| SMILES | IC50 ([1]; Cowpox virus, Huh-7, 24 h) [nM] | IC50 [2] [nM] | IC50 [3] [nM] | IC50 [4] [nM] | CC50 [5] [nM] | CC50 [6] [nM] | IC50 ([1]; hydrochloride) [nM] |
| --- | --- | --- | --- | --- | --- | --- | --- |
| NC(=O)c1cn([C@@H]2O[C@H](CO)[C@@H](O)[C@H]2O)c2ncnc(N)c12 [Oya1, 4-amino-7-((2R,3R,4S,5R)-3,4-dihydroxy-5-(hydroxymethyl)tetrahydrofuran-2-yl)-7H-pyrrolo[2,3-d]pyrimidine-5-carboxamide] | 220 ± 10 | 200 ± 10 | 50 ± 10 | 20 ± 10 | > 600 | > 600 |  |
| NC(=O)c1cn([C@@H]2O[C@H](CO)[C@@H](O)[C@H]2O)c2ncnc(N)c12 [Oya2, 4-amino-7-((2R,3R,4S,5R)-3,4-dihydroxy-5-(hydroxymethyl)tetrahydrofuran-2-yl)-7H-pyrrolo[2,3-d]pyrimidine-5-carboxamide hydrochloride] |  |  |  |  |  |  | 240 ± 10 |
